Measured values as given in patent US20050096278A1, “Antibacterial agents” (priority 2003, published 2005).
Values after ≈ are worked out from the molar mass of the structure shown.

Key:
S pyogenes C203 = assay: Antibacterial assay (standard microtitration), MIC; format: cell-based; conditions: Gram Positive Bacteria; Table 1B; read-out: Minimum Inhibitory Concentrations, S pyogenes C203
Protocol: (§1) Test A—Antibacterial Assays
(§2) The compounds of the present invention were tested against an assortment of Gram-negative and Gram-positive organisms using standard microtitration techniques (Cohen et. al., Antimicrob., 1985;28:766; Heifetz, et. al., Antimicrob., 1974;6:124). The results of the evaluation are shown in Tables 1A and B. In the tables, “—” means no data.

E. faecalis MGH-2 = assay: Antibacterial assay (standard microtitration), MIC; format: cell-based; conditions: Enterococcus faecalis, MGH2; Gram Positive Bacteria; Table 1B; read-out: Minimum Inhibitory Concentrations, E. faecalis MGH-2
Protocol: as §1, §2

S. aureus UC-76 = assay: Antibacterial assay (standard microtitration), MIC; format: cell-based; conditions: Staphylococcus aureus, UC76, Gram Positive Bacteria; Table 1B; read-out: Minimum Inhibitory Concentrations, S. aureus UC-76
Protocol: as §1, §2

M. catarrhalis BC-3531 = assay: Antibacterial assay (standard microtitration), MIC; format: cell-based; conditions: Moraxella catarrhalis, BC3531; Gram Negative Bacteria; Table 1A; read-out: Minimum Inhibitory Concentrations, M. catarrhalis BC-3531
Protocol: as §1, §2

H. influenzae HI-3542 = assay: Antibacterial assay (standard microtitration), MIC; format: cell-based; conditions: Gram Negative Bacteria, Table 1A; for MIC: Haemophilus influenzae, HI3542, read-out: Minimum Inhibitory Concentrations, H. influenzae HI-3542
Protocol: as §1, §2

E. coli MC4100 = assay: Antibacterial assay (standard microtitration), MIC; format: cell-based; conditions: Gram Negative Bacteria, Table 1A; for MIC: Escherichia coli, MC4100, read-out: Minimum Inhibitory Concentrations, E. coli MC4100
Protocol: as §1, §2

Compound	MIC (M. catarrhalis BC-3531) [µg/mL]	MIC (H. influenzae HI-3542) [µg/mL]	MIC (E. coli MC4100) [µg/mL]	also measured
COc1c(N2CCC(O)(CO)CC2)c(F)cc2c(=O)c(C(=O)O)cn(C3CC3)c12	–	–	–	melting point: 200 to 210 °C (dec.)
COc1c(N2CCC(O)C(CO)C2)c(F)cc2c(=O)c(C(=O)O)cn(C3CC3)c12 (stereo not drawn)	–	–	–	melting point: 115 to 125 °C
COc1c(N2CCC(C(O)CO)CC2)c(F)cc2c(=O)c(C(=O)O)cn(C3CC3)c12 (stereo not drawn)	–	–	–	melting point: 200 to 204 °C
COc1c(N2CCC(C(O)CCO)CC2)c(F)cc2c(=O)c(C(=O)O)cn(C3CC3)c12 (stereo not drawn)	–	–	–	melting point: 210 to 214 °C
Cc1c(N2CCC(O)C(CO)C2)c(F)cc2c(=O)c(C(=O)O)cn(C3CC3)c12 (stereo not drawn)	–	–	–	MIC (S pyogenes C203): 0.25 µg/mL (≈ 0.64 µM); MIC (E. faecalis MGH-2): 0.25 µg/mL (≈ 0.64 µM); MIC (S. aureus UC-76): 0.015 µg/mL (≈ 0.0384 µM)
COc1c(N2CCC(CCO)CC2)c(F)cc2c(=O)c(C(=O)O)cn(C3CC3)c12	–	–	–	MIC (S pyogenes C203): 0.25 µg/mL (≈ 0.618 µM); MIC (E. faecalis MGH-2): 0.125 µg/mL (≈ 0.309 µM); MIC (S. aureus UC-76): 0.015 µg/mL (≈ 0.0371 µM)
COc1c(N2CCC(O)C(CO)C2)c(F)cc2c(=O)c(C(=O)O)cn(C3CC3)c12 (stereo not drawn) [drawing 324]	0.125 (≈ 0.308 µM)	0.015 (≈ 0.0369 µM)	0.25 (≈ 0.615 µM)	–
COc1c(N2CCC3(CC2)OCCO3)c(F)cc2c(=O)c(C(=O)O)cn(C3CC3)c12 [drawing 325]	0.06 (≈ 0.143 µM)	0.06 (≈ 0.143 µM)	0.5 (≈ 1.19 µM)	–
Cc1c(N2CCC(CCO)CC2)c(F)cc2c(=O)c(C(=O)O)cn(C3CC3)c12 [drawing 326]	0.015 (≈ 0.0386 µM)	0.03 (≈ 0.0772 µM)	0.06 (≈ 0.154 µM)	–
COc1c(N2CCC(C(O)CO)CC2)c(F)cc2c(=O)c(C(=O)O)cn(C3CC3)c12 (stereo not drawn) [drawing 327]	0.06 (≈ 0.143 µM)	0.03 (≈ 0.0714 µM)	0.125 (≈ 0.297 µM)	–
COc1c(N2CCC(O)(CO)CC2)c(F)cc2c(=O)c(C(=O)O)cn(C3CC3)c12 [drawing 328]	0.125 (≈ 0.308 µM)	0.015 (≈ 0.0369 µM)	0.25 (≈ 0.615 µM)	–
COc1c(N2CCC(CO)CC2)c(F)cc2c(=O)c(C(=O)O)cn(C3CC3)c12 [drawing 329]	0.015 (≈ 0.0384 µM)	0.015 (≈ 0.0384 µM)	0.125 (≈ 0.32 µM)	–
Cc1c(N2CCC(O)C(C)(C)C2)c(F)cc2c(=O)c(C(=O)O)cn(C3CC3)c12 (stereo not drawn) [drawing 330]	0.5 (≈ 1.29 µM)	0.125 (≈ 0.322 µM)	2 (≈ 5.15 µM)	–
COc1c(N2CCC(O)C(C)(C)C2)c(F)cc2c(=O)c(C(=O)O)cn(C3CC3)c12 (stereo not drawn) [drawing 331]	0.125 (≈ 0.309 µM)	0.125 (≈ 0.309 µM)	0.25 (≈ 0.618 µM)	–
COc1c(N2CCC(O)C(C)C2)c(F)cc2c(=O)c(C(=O)O)cn(C3CC3)c12 (stereo not drawn) [drawing 332]	0.03 (≈ 0.0768 µM)	0.03 (≈ 0.0768 µM)	0.25 (≈ 0.64 µM)	–
COc1c(N2CCC(O)(c3ccccc3)CC2)c(F)cc2c(=O)c(C(=O)O)cn(C3CC3)c12 [drawing 333]	1 (≈ 2.21 µM)	2 (≈ 4.42 µM)	32 (≈ 70.7 µM)	–
COc1c(N2CCCC(C(O)CO)C2)c(F)cc2c(=O)c(C(=O)O)cn(C3CC3)c12 (stereo not drawn) [drawing 334]	0.25 (≈ 0.595 µM)	0.125 (≈ 0.297 µM)	1 (≈ 2.38 µM)	–
COc1c(N2CCCC(CO)C2)c(F)cc2c(=O)c(C(=O)O)cn(C3CC3)c12 (stereo not drawn) [drawing 335]	0.06 (≈ 0.154 µM)	0.03 (≈ 0.0768 µM)	0.25 (≈ 0.64 µM)	–
COc1c(N2CCCC(O)(CO)C2)c(F)cc2c(=O)c(C(=O)O)cn(C3CC3)c12 (stereo not drawn) [drawing 336]	0.5 (≈ 1.23 µM)	0.03 (≈ 0.0738 µM)	1 (≈ 2.46 µM)	–
COc1c(N2CCC(O)C(C)C2)c(F)cc2c(=O)c(C(=O)O)cn(C3CC3)c12 (stereo not drawn) [drawing 337]	–	–	–	Minimum Inhibitory Concentrations, H. influenzae HI-3542 (H. influenzae HI-3542): 0.03 µg/mL; Minimum Inhibitory Concentrations, E. coli MC4100 (E. coli MC4100): 0.25 µg/mL
